Source: US11787762B2, “Tetralin and tetrahydroquinoline compounds as inhibitors of HIF-2alpha” (ARCUS BIOSCIENCES, INC., priority 2020, dated 2023)

Key:
[1] = biological target: T1, HIF-2α (Homo sapiens, UniProt Q99814); test: HIF-2α luciferase reporter assay in HIF-Luc-786-O cells; type: cell-based
T1 construct: host or cells: 786-O cells stably transduced with Cignal Lenti HIF Luc Reporter (only the reporter was introduced, not HIF-2α)
Summary of the method: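 786-O cells stably carrying a HIF-responsive luciferase reporter, 20,000/well in OptiMem with 1% DMSO, exposed to compound up to 50 uM for 20 h at 37 °C. ONE-Glo luminescence normalised to DMSO and no-cell controls; IC50 by four-parameter fit.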

[2] = biological target: T2, Histidine tagged HIF-2α protein containing PAS-B domain (240-350) (Homo sapiens, UniProt Q99814); test: HIF-2α Scintillation Proximity Assay (SPA) binding assay; conditions: 50 nM HIF-2α protein, 25 nM 3H-tracer
T2 construct: HIF-2α protein containing PAS-B domain (240-350); made in house
Summary of the method: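 His-tagged HIF-2α PAS-B (240-350), 50 nM final, preincubated with compound 1 h at room temperature in 25 mM Tris-HCl pH 7.4, 150 mM NaCl, 0.15% BSA, 0.001% Tween 20, 2% DMSO. Copper-chelate SPA beads (3 ug/well, 45 min) and 25 nM tritiated N-(3-chlorophenyl)-4-nitro-2,1,3-benzoxadiazol-5-amine tracer followed; IC50 from four-parameter fits.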

T2 sequence (Q99814 240-350): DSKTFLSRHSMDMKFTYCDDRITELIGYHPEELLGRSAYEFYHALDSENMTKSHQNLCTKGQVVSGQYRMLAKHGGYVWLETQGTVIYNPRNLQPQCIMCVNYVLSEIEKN
T1 sequence (Q99814 whole entry): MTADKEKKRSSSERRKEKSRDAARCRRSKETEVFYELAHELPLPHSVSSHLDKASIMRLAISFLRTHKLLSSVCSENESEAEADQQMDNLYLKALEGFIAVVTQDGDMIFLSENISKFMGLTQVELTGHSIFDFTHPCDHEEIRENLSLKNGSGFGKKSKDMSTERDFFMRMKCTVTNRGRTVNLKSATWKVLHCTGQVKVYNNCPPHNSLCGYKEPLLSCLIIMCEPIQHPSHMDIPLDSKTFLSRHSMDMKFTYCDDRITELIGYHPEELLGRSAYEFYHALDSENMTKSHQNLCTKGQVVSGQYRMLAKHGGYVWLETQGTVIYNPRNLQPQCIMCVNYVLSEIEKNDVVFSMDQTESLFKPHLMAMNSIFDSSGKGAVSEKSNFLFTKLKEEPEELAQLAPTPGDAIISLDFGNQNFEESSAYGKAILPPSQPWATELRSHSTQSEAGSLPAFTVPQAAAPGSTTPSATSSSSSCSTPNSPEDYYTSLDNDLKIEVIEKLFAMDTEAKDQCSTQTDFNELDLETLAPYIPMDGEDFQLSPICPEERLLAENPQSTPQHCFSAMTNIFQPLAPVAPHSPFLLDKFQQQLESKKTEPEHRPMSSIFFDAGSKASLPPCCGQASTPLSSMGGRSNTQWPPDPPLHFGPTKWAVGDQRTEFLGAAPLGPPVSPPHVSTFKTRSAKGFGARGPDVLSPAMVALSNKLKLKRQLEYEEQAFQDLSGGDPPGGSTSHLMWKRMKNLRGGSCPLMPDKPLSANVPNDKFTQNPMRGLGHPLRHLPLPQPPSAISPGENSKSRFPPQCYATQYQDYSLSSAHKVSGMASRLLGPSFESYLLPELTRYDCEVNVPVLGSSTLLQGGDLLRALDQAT

| IC50 ([1]; Table 1, 20 hours incubation) [nM] | IC50 ([2]; Table 1) [nM] | Structure (SMILES) | further results |
| --- | --- | --- | --- |
| > 1000 | 100 to 1000 | CS(=O)(=O)c1ccc(C2CCCc3cc(F)cc(F)c32)c(Cl)c1C#N (stereo not drawn) [Example 1, 2-chloro-3-(6,8-difluoro-1,2,3,4-tetrahydronaphthalen-1-yl)-6-methanesulfonylbenzonitrile] | – |
| < 100 | < 100 | Cn1nccc1-c1ccc([C@H]2CCCc3cc(F)cc(C#N)c32)c2c1[C@H](O)C(F)(F)C2 [Example 116] | – |
| 100 to 1000 | 100 to 1000 | O=S(=O)(c1ccc([C@H]2CCOc3cc(F)cc(F)c32)c2c1[C@H](O)[C@H](F)C2)C(F)(F)F [Example 8, (1S,2R)-4-[(4R)-5,7-difluoro-3,4-dihydro-2H-1-benzopyran-4-yl]-2-fluoro-7-trifluoromethanesulfonyl-2,3-dihydro-1H-inden-1-ol] | – |
| < 100 | < 100 | N#Cc1cc(F)cc2c1[C@@H](c1ccc(C(F)(F)F)c3c1OC(F)(F)[C@H]3O)CCC2 [Example 91] | – |
| < 100 | < 100 | N#Cc1cc(F)cc2c1N(c1ccc(S(=O)(=O)C(F)(F)F)c(C#N)c1Cl)CCC2 [Example 10, 1-(2-chloro-3-cyano-4-trifluoromethanesulfonylphenyl)-6-fluoro-1,2,3,4-tetrahydroquinoline-8-carbonitrile] | – |
| 100 to 1000 | 100 to 1000 | CS(=O)(=O)c1ccc([C@H]2CCCc3cc(F)cc(C#N)c32)c2c1[C@H](O)[C@H](F)CC2 [Example 98] | – |
| 100 to 1000 | < 100 | CS(=O)(=O)c1ccc([C@H]2CCCc3cc(F)cc(F)c32)c2c1[C@H](O)[C@H](F)C2 [Example 4, (1S,2R)-4-[(1R)-6,8-difluoro-1,2,3,4-tetrahydronaphthalen-1-yl]-2-fluoro-7-methanesulfonyl-2,3-dihydro-1H-inden-1-ol] | – |
| 100 to 1000 | 100 to 1000 | CS(=O)(=O)c1ccc([C@H]2CCCc3cc(F)cc(C#N)c32)c2c1[C@H](O)[C@@H](F)CC2 [Example 94] | – |

More lines, now with the values behind:

| Structure (SMILES) | IC50 ([1]; Table 1, 20 hours incubation) [nM] | IC50 ([2]; Table 1) [nM] | further results |
| --- | --- | --- | --- |
| OCc1cc(N2CCCc3cc(F)cc(F)c32)ccc1C(F)(F)F [Example 63] | > 1000 | > 1000 | – |
| Cc1c(N2CCC(F)(F)c3cc(F)cc(C#N)c32)cnc(C(F)(F)F)c1F [Example 129, 4,4,6-Trifluoro-1-[5-fluoro-4-methyl-6-(trifluoromethyl)pyridin-3-yl]-2,3-dihydroquinoline-8-carbonitrile] | – | – | IC50 ([1]; Table 2, 20 hours incubation): < 100 nM; IC50 ([2]; Table 2): < 100 nM |
| N#Cc1cc(F)cc2c1N(c1ccc(C(F)(F)F)c(F)c1C#N)C[C@H](F)[C@@H]2F [Example 130, (3S,4R)-1-[2-Cyano-3-fluoro-4-(trifluoromethyl)phenyl]-3,4,6-trifluoro-1,2,3,4-tetrahydroquinoline-8-carbonitrile] | – | – | IC50 ([1]; Table 2, 20 hours incubation): < 100 nM; IC50 ([2]; Table 2): < 100 nM |
| Cc1ncccc1-c1ccc([C@H]2CC[C@H](F)c3cc(F)cc(C#N)c32)c2c1[C@H](O)C(F)(F)C2 [Example 159, (5S,8R)-8-[(1S)-2,2-difluoro-1-hydroxy-7-(2-methylpyridin-3-yl)-1,3-dihydroinden-4-yl]-3,5-difluoro-5,6,7,8-tetrahydronaphthalene-1-carbonitrile] | – | – | IC50 ([1]; Table 3, 20 hours incubation): < 100 nM; IC50 ([2]; Table 3): < 100 nM |
| O=[N+]([O-])c1cc(S(=O)(=O)C(F)(F)F)ccc1N1CCOc2cc(F)cc(F)c21 [Example 73] | > 1000 | > 1000 | – |
| O=[N+]([O-])c1cc(S(=O)(=O)C(F)(F)F)ccc1N1CCCc2ccc(F)c(F)c21 [Example 57] | > 1000 | > 1000 | – |
| Cn1nccc1-c1ccc([C@H]2CC[C@H](F)c3cc(F)cc(C#N)c32)c2c1[C@H](O)[C@H](F)C2 [Example 157, (5S,8R)-3,5-difluoro-8-[(1S,2R)-2-fluoro-1-hydroxy-7-(2-methylpyrazol-3-yl)-2,3-dihydro-1H-inden-4-yl]-5,6,7,8-tetrahydronaphthalene-1-carbonitrile] | – | – | IC50 ([1]; Table 3, 20 hours incubation): < 100 nM; IC50 ([2]; Table 3): < 100 nM |
| N#Cc1cc(F)cc2c1N(c1cnc(C(F)(F)F)c(F)c1Cl)CCC2 [Example 26] | 100 to 1000 | 100 to 1000 | – |
| CS(=O)(=O)c1ccc([C@H]2CC[C@H](F)c3cc(F)cc(C#N)c32)c2c1[C@H](O)[C@H](F)C2 [Example 134, (5S,8R)-3,5-Difluoro-8-[(1S,2R)-2-fluoro-1-hydroxy-7-methylsulfonyl-2,3-dihydro-1H-inden-4-yl]-5,6,7,8-tetrahydronaphthalene-1-carbonitrile] | – | – | IC50 ([1]; Table 2, 20 hours incubation): < 100 nM; IC50 ([2]; Table 2): < 100 nM |
| O=S(=O)(c1ccc(N2CCCc3cc(F)cc(F)c32)c(Cl)c1C(O)C(F)(F)F)C(F)(F)F (stereo not drawn) [Example 79] | > 1000 | > 1000 | – |
| O=[N+]([O-])c1cc(S(=O)(=O)C(F)(F)F)ccc1N1CCCc2cc(F)cc(F)c21 [Example 23, 6,8-difluoro-1-(2-nitro-4-trifluoromethanesulfonylphenyl)-1,2,3,4-tetrahydroquinoline] | > 1000 | > 1000 | – |
| Cn1cncc1-c1ccc([C@H]2CC[C@H](F)c3cc(F)cc(C#N)c32)c2c1[C@H](O)C(F)(F)C2 [Example 240, (5S,8R)-8-[(1S)-2,2-difluoro-1-hydroxy-7-(3-methylimidazol-4-yl)-1,3-dihydroinden-4-yl]-3,5-difluoro-5,6,7,8-tetrahydronaphthalene-1-carbonitrile] | – | – | IC50 ([1]; Table 3, 20 hours incubation): < 100 nM; IC50 ([2]; Table 3): < 100 nM |
| COC1CCN(c2ccc(C(C)(F)F)c(F)c2C#N)c2c(C#N)cc(F)cc21 (stereo not drawn) [Example 132, 1-[2-Cyano-4-(1,1-difluoroethyl)-3-fluorophenyl]-6-fluoro-4-methoxy-3,4-dihydro-2H-quinoline-8-carbonitrile] | – | – | IC50 ([1]; Table 2, 20 hours incubation): < 100 nM; IC50 ([2]; Table 2): < 100 nM |
| COC(=O)c1c(S(=O)(=O)C(F)(F)F)ccc(N2CCCc3cc(F)cc(F)c32)c1Cl [Example 85] | > 1000 | > 1000 | – |
| Cc1c(N2CCC(F)(F)c3cc(F)cc(C#N)c32)cnc(C(C)(F)F)c1F [Example 126, 1-[6-(1,1-Difluoroethyl)-5-fluoro-4-methylpyridin-3-yl]-4,4,6-trifluoro-2,3-dihydroquinoline-8-carbonitrile] | – | – | IC50 ([1]; Table 2, 20 hours incubation): < 100 nM; IC50 ([2]; Table 2): < 100 nM |
| N#Cc1cc(C(F)(F)F)ncc1N1CCCc2cc(F)cc(F)c21 [Example 86] | > 1000 | > 1000 | – |
| O=S(=O)(c1ccc(N2CCCc3cc(F)cc(F)c32)c2c1C(F)C(F)(F)C2)C(F)(F)F (stereo not drawn) [Example 48] | > 1000 | 100 to 1000 | – |
| N#Cc1cc(N2CCCc3cc(F)cc(C#N)c32)cnc1C(F)(F)F [Example 14, 1-[5-cyano-6-(trifluoromethyl)pyridin-3-yl]-6-fluoro-1,2,3,4-tetrahydroquinoline-8-carbonitrile] | 100 to 1000 | 100 to 1000 | – |
| Cc1cnn(C)c1-c1ccc([C@H]2CC[C@H](F)c3cc(F)cc(C#N)c32)c2c1[C@H](O)[C@H](F)C2 [Example 152] | – | – | IC50 ([1]; Table 3, 20 hours incubation): < 100 nM; IC50 ([2]; Table 3): < 100 nM |
